According to US20070128217A1 (priority 2003, published 2007):

How the values were obtained:
[1] = tested on: antibodies in sera from SARS patients (sera 1a, 1b, 2, 6, 37, 62, London, SARS-yellow, SARS-green); format: binding, human; parameters: Binding of serum 6 to linear peptides of protein X1 of SARS-CoV Urbani / Binding of serum 37 to linear peptides of protein X1 of SARS-CoV Urbani / Binding of serum 6 to looped/cyclic peptide (PEPSCAN-ELISA) / Binding of serum 37 to looped/cyclic peptide (PEPSCAN-ELISA) / Binding of serum 37 to looped/cyclic peptides of protein X1 of SARS-CoV Urbani / Binding of serum 6 to linear peptides of protein X2 / Binding of serum 37 to linear peptides of protein X2 / Binding of serum 37 to looped/cyclic peptides of protein X2 of SARS-CoV Urbani / Binding of serum 6 to linear peptides of protein M of SARS-CoV Urbani / Binding of serum 37 to linear peptides of protein M of SARS-CoV Urbani / Binding of serum 6 to looped/cyclic peptides of protein M of SARS-CoV Urbani / Binding of serum 37 to looped/cyclic peptides of protein M of SARS-CoV Urbani / Binding of serum 6 to linear peptides of protein X3 of SARS-CoV Urbani / Binding of serum 37 to linear peptides of protein X3 of SARS-CoV Urbani / Binding of serum 37 to looped/cyclic peptides of protein X3 of SARS-CoV Urbani / Binding of serum 6 to linear peptides of protein X4 of SARS-CoV Urbani / Binding of serum 37 to linear peptides of protein X4 of SARS-CoV Urbani / Binding of serum 37 to looped/cyclic peptides of protein X4 of SARS-CoV Urbani / Binding of serum 6 to linear peptides of protein X5 of SARS-CoV Urbani / Binding of serum 37 to linear peptides of protein X5 of SARS-CoV Urbani / Binding of serum 37 to looped/cyclic peptides of protein X5 of SARS-CoV Urbani / Binding of serum 6 to linear peptides of protein N of SARS-CoV Urbani / Binding of serum 37 to linear peptides of protein N of SARS-CoV Urbani / Binding of serum 6 to linear peptide (PEPSCAN-ELISA) / Binding of serum 1a to looped/cyclic peptides of protein N of SARS-CoV Urbani / Binding of serum 1b to looped/cyclic peptides of protein N of SARS-CoV Urbani / Binding of serum 2 to looped/cyclic peptides of protein N of SARS-CoV Urbani / Binding of serum 6 to looped/cyclic peptides of protein N of SARS-CoV Urbani / Binding of serum 37 to looped/cyclic peptides of protein N of SARS-CoV Urbani / Binding of serum 62 to looped/cyclic peptides of protein N of SARS-CoV Urbani / Binding of serum London to looped/cyclic peptides of protein N of SARS-CoV Urbani / Binding of serum SARS-green to looped/cyclic peptides of protein N of SARS-CoV Urbani: unit not given here
[2] = tested on: control sera (pooled serum of ten healthy LUMC hospital workers; commercial negative donor pooled serum from the Dutch bloodbank); format: binding, human; parameters: Binding of Control serum LUMC to linear peptides / Binding of Control serum Blood-bank to linear peptides / Binding of Control serum LUMC to looped peptides / Binding of Control Serum Blood-Bank to Looped peptides / Binding of Control serum LUMC to linear peptides of the protein M of SARS-CoV Urbani / Binding of Control serum Blood-bank to linear peptides of the protein M of SARS-CoV Urbani / Binding of Control serum LUMC to looped peptides of the protein M of SARS-CoV Urbani / Binding of Control Serum Blood-Bank to Looped peptides of the protein M of SARS-CoV Urbani: unit not given here
[3] = tested on: rabbit serum obtained by immunizing a rabbit with the SARS-CoV strain Frankfurt 1; format: binding; parameters: Binding of a rabbit serum to linear peptides / Binding of a rabbit serum to looped peptides / Rabbit serum linear peptides / Rabbit serum looped peptides / Binding of a rabbit serum to linear peptides of protein N of SARS-CoV Urbani (Rabbit serum linear peptides) / Binding of a rabbit serum to looped/cyclic peptides of protein N of SARS-CoV Urbani (Rabbit serum looped peptides): unit not given here

Sequence: FQVTIAEILIIIMRT
- Binding of serum 1a to linear peptides of protein X3 of SARS-CoV Urbani [1]: 0.7
- Binding of serum 1a to looped/cyclic peptides of protein X3 of SARS-CoV Urbani [1]: 0.5
- Binding of serum 1b to linear peptides of protein X3 of SARS-CoV Urbani [1]: 0.3
- Binding of serum 1b to looped/cyclic peptides of protein X3 of SARS-CoV Urbani [1]: 0.2
- Binding of serum 2 to linear peptides of protein X3 of SARS-CoV Urbani [1]: 0.6
- Binding of serum 2 to looped/cyclic peptides of protein X3 of SARS-CoV Urbani [1]: 0.5
- Binding of serum 6 to linear peptides of protein X3 of SARS-CoV Urbani [1]: 0.6
- Binding of serum 6 to looped/cyclic peptides of protein X3 of SARS-CoV Urbani [1]: 0.3
- Binding of serum 37 to linear peptides of protein X3 of SARS-CoV Urbani [1]: 0.3
- Binding of serum 37 to looped/cyclic peptides of protein X3 of SARS-CoV Urbani [1]: 0.6
- Binding of serum 62 to linear peptides of protein X3 of SARS-CoV Urbani [1]: 0.5
- Binding of serum 62 to looped/cyclic peptides of protein X3 of SARS-CoV Urbani [1]: 0.4
- Binding of serum London to linear peptides of protein X3 of SARS-CoV Urbani [1]: 0.7
- Binding of serum London to looped/cyclic peptides of protein X3 of SARS-CoV Urbani [1]: 0.2
- Binding of serum SARS-green to linear peptides of protein X3 of SARS-CoV Urbani [1]: 0.5
- Binding of serum SARS-green to looped/cyclic peptides of protein X3 of SARS-CoV Urbani [1]: 0.2
- Binding of serum SARS-yellow to linear peptides of protein X3 of SARS-CoV Urbani [1]: 1.1
- Binding of serum SARS-yellow to looped/cyclic peptides of protein X3 of SARS-CoV Urbani [1]: 0.6
- Binding of Control Serum Blood-Bank to Looped peptides of the protein X3 of SARS-CoV Urbani [2]: 0.7
- Binding of Control serum Blood-bank to linear peptides of the protein X3 of SARS-CoV Urbani [2]: 0.8
- Binding of Control serum LUMC to linear peptides of the protein X3 of SARS-CoV Urbani [2]: 0.4
- Binding of Control serum LUMC to looped peptides of the protein X3 of SARS-CoV Urbani [2]: 0.6
- Rabbit serum linear peptides [3]: 0.2
- Rabbit serum looped peptides [3]: 0.3

Sequence: SGFAAYNRYRIGNYK
- Binding of serum 1a to linear peptides of protein M of SARS-CoV Urbani [1]: 0.8
- Binding of serum 1a to looped/cyclic peptides of protein M of SARS-CoV Urbani [1]: 0.9
- Binding of serum 1b to linear peptides of protein M of SARS-CoV Urbani [1]: 0.4
- Binding of serum 1b to looped/cyclic peptides of protein M of SARS-CoV Urbani [1]: 0.6
- Binding of serum 2 to linear peptides of protein M of SARS-CoV Urbani [1]: 0.6
- Binding of serum 2 to looped/cyclic peptides of protein M of SARS-CoV Urbani [1]: 0.9
- Binding of serum 6 to linear peptides of protein M of SARS-CoV Urbani [1]: 0.8
- Binding of serum 6 to looped/cyclic peptides of protein M of SARS-CoV Urbani [1]: 1.4
- Binding of serum 37 to linear peptides of protein M of SARS-CoV Urbani [1]: 0.7
- Binding of serum 37 to looped/cyclic peptides of protein M of SARS-CoV Urbani [1]: 0.7
- Binding of serum 62 to linear peptides of protein M of SARS-CoV Urbani [1]: 0.8
- Binding of serum 62 to looped/cyclic peptides of protein M of SARS-CoV Urbani [1]: 0.7
- Binding of serum London to linear peptides of protein M of SARS-CoV Urbani [1]: 0.4
- Binding of serum London to looped/cyclic peptides of protein M of SARS-CoV Urbani [1]: 0.3
- Binding of serum SARS-green to linear peptides of protein M of SARS-CoV Urbani [1]: 0.3
- Binding of serum SARS-green to looped/cyclic peptides of protein M of SARS-CoV Urbani [1]: 0.2
- Binding of serum SARS-yellow to linear peptides of protein M of SARS-CoV Urbani [1]: 0.0
- Binding of serum SARS-yellow to looped/cyclic peptides of protein M of SARS-CoV Urbani [1]: 0.7
- Binding of Control Serum Blood-Bank to Looped peptides of the protein M of SARS-CoV Urbani [2]: 0.7
- Binding of Control serum Blood-bank to linear peptides of the protein M of SARS-CoV Urbani [2]: 0.6
- Binding of Control serum LUMC to linear peptides of the protein M of SARS-CoV Urbani [2]: 0.4
- Binding of Control serum LUMC to looped peptides of the protein M of SARS-CoV Urbani [2]: 0.8
- Rabbit serum linear peptides [3]: 1.2
- Rabbit serum looped peptides [3]: 1.6

Sequence: YQLESTQITTDTGIE
- Binding of serum 1a to linear peptides of protein X1 of SARS-CoV Urbani [1]: 0.6
- Binding of serum 1a to looped/cyclic peptides of protein X1 of SARS-CoV Urbani [1]: 0.4
- Binding of serum 1b to linear peptides of protein X1 of SARS-CoV Urbani [1]: 0.5
- Binding of serum 1b to looped/cyclic peptides of protein X1 of SARS-CoV Urbani [1]: 0.3
- Binding of serum 2 to linear peptides of protein X1 of SARS-CoV Urbani [1]: 0.4
- Binding of serum 2 to looped/cyclic peptides of protein X1 of SARS-CoV Urbani [1]: 0.1
- Binding of serum 6 to linear peptides of protein X1 of SARS-CoV Urbani [1]: 0.5
- Binding of serum 6 to looped/cyclic peptides of protein X1 of SARS-CoV Urbani [1]: 0.1
- Binding of serum 37 to linear peptides of protein X1 of SARS-CoV Urbani [1]: 0.6
- Binding of serum 37 to looped/cyclic peptides of protein X1 of SARS-CoV Urbani [1]: 0.3
- Binding of serum 62 to linear peptides of protein X1 of SARS-CoV Urbani [1]: 0.5
- Binding of serum 62 to looped/cyclic peptides of protein X1 of SARS-CoV Urbani [1]: 0.3
- Binding of serum London to linear peptides of protein X1 of SARS-CoV Urbani [1]: 0.2
- Binding of serum London to looped/cyclic peptides of protein X1 of SARS-CoV Urbani [1]: 0.1
- Binding of serum SARS-green to linear peptides of protein X1 of SARS-CoV Urbani [1]: 0.4
- Binding of serum SARS-green to looped/cyclic peptides of protein X1 of SARS-CoV Urbani [1]: 0.2
- Binding of serum SARS-yellow to linear peptides of protein X1 of SARS-CoV Urbani [1]: 0.5
- Binding of serum SARS-yellow to looped/cyclic peptides of protein X1 of SARS-CoV Urbani [1]: 0.2
- Binding of Control Serum Blood-Bank to Looped peptides [2]: 0.3
- Binding of Control serum Blood-bank to linear peptides [2]: 0.4
- Binding of Control serum LUMC to linear peptides [2]: 0.4
- Binding of Control serum LUMC to looped peptides [2]: 0.4
- Binding of a rabbit serum to linear peptides [3]: 0.1
- Binding of a rabbit serum to looped peptides [3]: 0.4
